Reference: patent US8859250B2, “Crystal structure of glutaminyl cyclase” (Probiodrug AG, priority 2010, dated 2014)

Columns and labels:
murine QC (mQC) = target: T1, murine QC (mQC) (Mus musculus, UniProt Q9CYK2); test: Ki-values of selected inhibitors for murine QC; format: biochemical; conditions: murine glutaminyl cyclase
T1 construct: made in house; host or cells: Pichia pastoris (vector pPICZalphaB, secreted)

Solubility in water = format: physicochemical

T1 sequence (Q9CYK2 36-362): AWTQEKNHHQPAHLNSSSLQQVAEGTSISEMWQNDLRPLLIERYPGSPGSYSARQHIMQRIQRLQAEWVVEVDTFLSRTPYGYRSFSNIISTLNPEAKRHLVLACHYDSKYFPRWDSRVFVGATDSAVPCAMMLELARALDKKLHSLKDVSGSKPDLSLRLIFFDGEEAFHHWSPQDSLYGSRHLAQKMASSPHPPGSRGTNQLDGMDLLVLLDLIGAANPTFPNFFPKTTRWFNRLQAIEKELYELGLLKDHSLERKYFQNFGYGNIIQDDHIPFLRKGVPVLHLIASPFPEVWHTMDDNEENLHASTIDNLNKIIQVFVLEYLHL

SMILES | Ki (murine QC (mQC)) [nM] | solubility in water (Solubility in water)
Cc1cc(C)c(N/C(=N/C#N)NCCCn2cncc2C)c(C)c1 [Inhibitor C] | 51.3 | 
COc1ccc(NC(=S)NCCCn2ccnc2)cc1OC [Inhibitor A, 1-(3-(1H-Imidazol-1-yl)propyl)-3-(3,4-dimethoxyphenyl)thiourea] | 173 | soluble in water
